{"source": "patent US7897730B2", "about": "“TRAIL receptor-binding agents and uses of the same” (Beijing Cotimes Biotech Ltd., priority 2006, dated 2011)", "key": {"[1]": {"system": "Human T leukemia cells (Jurkat)", "assay": "Flow cytometry analysis of cell surface binding", "conditions": "10 μg/ml antibody; cells express TRAIL-R2 but not TRAIL-R1", "excerpt": "(§1) Tumor cells may express differential levels of cell surface of TRAIL-R1 and TRAIL-R2, therefore a monospecific antibody directed against either TRAIL-R1 or TRAIL-R2 may not able to bind to and induce apoptosis of all tumor cells when administered alone. […] Human T leukemia cells (Jurkat) only express TRAIL-R2 but not TRAIL-R1. Human B lymphoma cells (Ramos) express high levels of TRAIL-R1 but low levels of TRAIL-R2.\n(§2) 1×10^6 single cells were collected from cell culture medium and washed twice with FACS buffer (PBS containing 5% FCS, 0.1% NaN3, pH7.4). […] After washing twice with 1 ml FACS buffer, cells were further incubated with PE-conjugated goat anti-mouse IgG1 antibody on ice for 30 minutes. After washing twice with 1 ml FACS buffer, cells were suspended in 0.5 ml FACS buffer and 10,000 viable cells were analyzed by FACScan flow cytometer."}, "[2]": {"system": "Human B lymphoma cells (Ramos)", "assay": "Flow cytometry analysis of cell surface binding", "conditions": "10 μg/ml antibody; cells express high TRAIL-R1, low TRAIL-R2", "excerpt": "as §1, §2"}, "[3]": {"system": "MDA231 human breast cancer cell line", "assay": "Xenograft model, tumor size", "assay_type": "in vivo, Balb/c nude mice", "excerpt": "Human cancer cell lines that were used for generation of murine xenograft models of human cancer are: a) MDA231 human breast cancer cell line; b) 7402 human liver cancer cell line; c) Colo205 human colon cancer cell lines; and d) MIAcapa human pancreatic cancer cell line. All cells were purchased from ATCC, and cultured in DMEM supplemented with 10% FCS.\nSix (6) to 8 week-old Balb/c nude mice were inoculated subcutaneously with 1×10^7 human cancer cells. At day 7-14 after tumor inoculation depending on inoculated tumor cell lines, over 90% mice developed viable tumor mass. The tumor-bearing mice were randomly divided into two groups: one was untreated control group, and another was CTB003 treated group. Human cancer tumor growth was evaluated by sizes of tumor. After inoculation, tumor sizes were measured weekly.\nThe treatment was repeated six times within three weeks.\n(§3) Six (6) to 8 week-old Balb/c nude mice were inoculated subcutaneously with 1×10^7 human MDA231 breast cancer cells. […] Human breast cancer tumor growth was evaluated by measuring the size of tumor. After inoculation the tumor sizes were measured in mice weekly. […]\nas §3"}, "[4]": {"system": "Human B lymphoma cells (Ramos)", "assay": "ATPLite cell viability, apoptosis-inducing activity", "assay_type": "cell-based", "conditions": "10-1000 ng/ml antibody, 16 h", "method": "as §1\n(§4) After culture at 37° C. for 16 h, the cell viability of each culture was determined using the ATPLite kit according to the manufacturer's instructions (Packard Instruments, Meriden, Conn.): add 50 μl of cell lysis buffer and then 50 μl of substrate buffer. The reaction was counted in a luminescent reader. Cell viability was calculated as (cpm of treated cells/cmp of control cells)×100%."}, "[5]": {"system": "human colon cancer cells (SW1116)", "assay": "ATPLite cell viability, CTB003 with chemotherapeutic drug or mono-specific antibody", "assay_type": "cell-based", "conditions": "for effect on CTB003 killing: combination with CTB003", "method": "(§5) The cell lines selected for study included: human breast cancer cells (BT474), human colon cancer cells (SW620), human lung cancer cells (A437), human colon cancer cells (SW1116), and human pancreatic cancer cells (Panc 1). All cells were purchased from ATCC.\nas §4, with “overnight,” for “for 16 h, the”, “viability” for “viability of each culture”\nas §4, with “h,” for “h, the”, “viability” for “viability of each culture”"}, "[6]": {"system": "human breast cancer cells (BT474)", "assay": "ATPLite cell viability, CTB003 with chemotherapeutic drug", "assay_type": "cell-based", "conditions": "combination with CTB003", "method": "as §5\nas §4, with “overnight,” for “for 16 h, the”, “viability” for “viability of each culture”"}, "[7]": {"system": "binding of CTB003 to TRAIL-R2", "assay": "Competitive inhibition ELISA with polypeptides", "set-up": "species or system human", "conditions": "1 μg/ml CTB003, various concentrations of peptide", "method": "(§6) ELISA plate was coated with 1 μg/ml TRAIL-R2-Fc fusion protein in PBS at 4° C. overnight. After washing three times with PBS, the plate was blocked with 3% BSA PBS at room temperature for one hour. […] The unbound antibodies were removed by washing three time with PBS, and then HRP-conjugated goat anti-mouse IgG1 was added at 37° C. for 30 minutes. After washing three times with PBS, TMB substrate buffer was added for 10 minutes and then the reaction was stopped by adding 2N H2SO4. The values of optical density were recorded in a ELISA plate reader with a dual wavelength at 450 nm/650 nm.\nas §6, with “μg/ml TRAIL-R1 or” for “μg/ml”"}, "[8]": {"system": "binding of humanized chimeric CTB003 to TRAIL-R2", "assay": "Competitive inhibition ELISA with polypeptides", "set-up": "species or system human", "conditions": "various concentrations of peptide", "method": "as §6, with “μg/ml TRAIL-R1 or” for “μg/ml”"}, "[9]": {"system": "binding of humanized chimeric CTB003 to TRAIL-R1", "assay": "Competitive inhibition ELISA with polypeptides", "set-up": "species or system human", "conditions": "various concentrations of peptide", "method": "as §6, with “μg/ml TRAIL-R1 or” for “μg/ml”"}, "[10]": {"system": "binding of CTB003 to TRAIL-R1", "assay": "Competitive inhibition ELISA with polypeptides", "set-up": "species or system human", "conditions": "1 μg/ml CTB003, various concentrations of peptide", "method": "as §6, with “μg/ml TRAIL-R1 or” for “μg/ml”"}, "[11]": {"system": "human colon cancer cells (SW620)", "assay": "ATPLite cell viability, CTB003 with chemotherapeutic drug", "assay_type": "cell-based", "conditions": "combination with CTB003", "method": "as §5\nas §4, with “overnight,” for “for 16 h, the”, “viability” for “viability of each culture”"}, "[12]": {"system": "human pancreatic cancer cells (Panc-1)", "assay": "ATPLite cell viability, CTB003 with chemotherapeutic drug", "assay_type": "cell-based", "conditions": "combination with CTB003", "method": "as §5\nas §4, with “overnight,” for “for 16 h, the”, “viability” for “viability of each culture”"}, "[13]": {"system": "human lung cancer cells (A437)", "assay": "ATPLite cell viability, CTB003 with chemotherapeutic drug", "assay_type": "cell-based", "conditions": "combination with CTB003", "method": "as §5\nas §4, with “overnight,” for “for 16 h, the”, “viability” for “viability of each culture”"}}}
{"compound": "CTB006: Murine monospecific antibody directed to TRAIL-R2 receptor; hybridoma CGMCC 1691", "values": [{"measurement": "cell surface staining", "setting": "[1]", "result": "positively stained"}, {"measurement": "cell surface staining", "setting": "[2]", "result": "only weakly stained"}, {"measurement": "effect on tumor", "setting": "[3]; CTB006 alone, 100 μg i.p. twice a week for three times", "result": "tumor inhibition was observed but tumor size reduction was not remarkable"}, {"measurement": "susceptibility to antibody-induced apoptosis", "setting": "[4]", "result": "not susceptible"}, {"measurement": "effect on CTB003 killing", "setting": "[5]", "result": "synergistically enhanced CTB003 killing in a dose-dependent fashion"}, {"measurement": "cell killing by antibody alone", "setting": "[5]; single antibody", "result": "did not induce cell killing"}]}
{"compound": "COc1cccc2c1C(=O)c1c(O)c3c(c(O)c1C2=O)C[C@@](O)(C(=O)CO)C[C@@H]3O[C@H]1C[C@H](N)[C@H](O)[C@H](C)O1", "note": "[Adriamycin, reference compound]", "values": [{"measurement": "effect on tumor", "setting": "[3]; Adriamycin alone, 100 μg per dose i.p. twice a week for three times", "result": "tumor inhibition was observed but tumor size reduction was not remarkable"}, {"measurement": "effect on CTB003 killing", "setting": "[6]", "result": "synergistically enhanced CTB003 killing in a dose-dependent fashion"}]}
{"compound": "VKDCTPWSDIECVHKE [peptide I]", "values": [{"measurement": "inhibition of antibody binding", "setting": "[7]", "result": "inhibited the binding of CTB003 to TRAIL-R2 in a dose-dependent manner"}, {"measurement": "inhibition of antibody binding", "setting": "[8]", "result": "inhibited the binding of humanized chimeric CTB003 to TRAIL-R2 in a dose-dependent manner"}, {"measurement": "inhibition of antibody binding", "setting": "[9]", "result": "inhibited the binding of humanized chimeric CTB003 to TRAIL-R1 in a dose-dependent manner"}, {"measurement": "inhibition of antibody binding", "setting": "[10]", "result": "inhibited the binding of CTB003 to TRAIL-R1 in a dose-dependent manner"}]}
{"compound": "CC(=O)O[C@H]1C(=O)[C@@]2(C)[C@H]([C@H](OC(=O)c3ccccc3)[C@]3(O)C[C@H](OC(=O)[C@H](O)[C@@H](NC(=O)c4ccccc4)c4ccccc4)C(C)=C1C3(C)C)[C@]1(OC(C)=O)CO[C@@H]1C[C@@H]2O", "note": "[Taxol]", "values": [{"measurement": "effect on CTB003 killing", "setting": "[11]", "result": "synergistically enhanced CTB003 killing in a dose-dependent fashion"}]}
{"compound": "Nc1ccn([C@@H]2O[C@H](CO)[C@@H](O)C2(F)F)c(=O)n1", "note": "[Gemcitabine, reference compound]", "values": [{"measurement": "effect on CTB003 killing", "setting": "[12]", "result": "synergistically enhanced CTB003 killing in a dose-dependent fashion"}]}
{"compound": "MVKVGDCTPWSDIECVHKESGTKHSGEAPA [peptide G, TRAIL-R2 (aa164-aa193), reference compound]", "values": [{"measurement": "inhibition of antibody binding", "setting": "[7]", "result": "inhibited the binding of CTB003 to TRAIL-R2 in a dose-dependent manner"}]}
{"compound": "CCc1c2c(nc3ccc(OC(=O)N4CCC(N5CCCCC5)CC4)cc13)-c1cc3c(c(=O)n1C2)COC(=O)[C@]3(O)CC", "note": "[CTP-11, reference compound]", "values": [{"measurement": "effect on CTB003 killing", "setting": "[5]", "result": "synergistically enhanced CTB003 killing in a dose-dependent fashion"}]}
{"compound": "RKCRTGCPRGMVKVGDCTPWSDIECVHKES [peptide F, TRAIL-R2 (aa154-aa183), reference compound]", "values": [{"measurement": "inhibition of antibody binding", "setting": "[7]", "result": "inhibited the binding of CTB003 to TRAIL-R2 in a dose-dependent manner"}]}
{"compound": "N.N.[Cl][Pt][Cl]", "note": "[Cisplatin, reference compound]", "values": [{"measurement": "effect on CTB003 killing", "setting": "[13]", "result": "synergistically enhanced CTB003 killing in a dose-dependent fashion"}]}
{"compound": "VGDCTPWSDIECVHKE [peptide H]", "values": [{"measurement": "inhibition of antibody binding", "setting": "[7]", "result": "inhibited the binding of CTB003 to TRAIL-R2 in a dose-dependent manner"}, {"measurement": "inhibition of antibody binding", "setting": "[8]", "result": "inhibited the binding of humanized chimeric CTB003 to TRAIL-R2 in a dose-dependent manner"}, {"measurement": "inhibition of antibody binding", "setting": "[9]", "result": "inhibited the binding of humanized chimeric CTB003 to TRAIL-R1 in a dose-dependent manner"}, {"measurement": "inhibition of antibody binding", "setting": "[10]", "result": "inhibited the binding of CTB003 to TRAIL-R1 in a dose-dependent manner"}]}
